For one assay, the target named is T1, TREK-1 channel (Homo sapiens, UniProt O95069).
T1 construct: expressed in transfected cells; host or cells: COS-7 cells (ATCC CRL-1651), DEAE-dextran transfection
T1 sequence (O95069 1-426): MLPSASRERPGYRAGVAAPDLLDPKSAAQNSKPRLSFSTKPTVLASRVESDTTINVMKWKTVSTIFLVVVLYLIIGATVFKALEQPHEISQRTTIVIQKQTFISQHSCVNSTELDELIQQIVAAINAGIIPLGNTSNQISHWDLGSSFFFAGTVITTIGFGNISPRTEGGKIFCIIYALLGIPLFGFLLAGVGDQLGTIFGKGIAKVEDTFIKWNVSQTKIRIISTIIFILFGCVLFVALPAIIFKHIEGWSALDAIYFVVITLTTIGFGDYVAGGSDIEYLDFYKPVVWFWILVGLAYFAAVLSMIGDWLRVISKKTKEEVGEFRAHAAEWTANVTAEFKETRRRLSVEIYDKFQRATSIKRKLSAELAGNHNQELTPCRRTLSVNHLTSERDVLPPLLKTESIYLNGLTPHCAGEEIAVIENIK
As to the kind of experiment: Whole-cell patch clamp of TREK-1 channel activity in transfected COS-7 cells. In kind it is cell-based. The note with it: activation by 10 μM arachidonic acid alone (baseline 31 pA/pF). The method, then:
All the experiments for measuring the effect of the propeptide were conducted on COS-7 cells (cell line derived from kidney fibroblasts of African green monkey Cercopithecus aethiops). These cells are sown at a density of 20 000 cells/dish with diameter of 35 mm, 24 hours before being transfected by the DEAE-dextran method with 1 μg of pIRES-EGFP-TREK-1 plasmid. Measurements of current were taken 48 to 72 hours after transfection.
Culture of the COS-7 cells. The COS-7 cells (ATCC reference: CRL-1651) are cultivated in DMEM medium (Gibco)/10% fetal calf serum (FCS, ICN), at 37° C. in the presence of 5% CO2.
Transfection using DEAE dextran. On day 1, the COS-7 cells are sown at 20 000 cells per 35-mm diameter dish containing 2 ml of culture medium. On day 2, the medium is removed and the cells are covered with 200 μl of PBS (Gibco) containing 1 μg of pIRES-EGFP-TREK-1 plasmid and 100 μg of DEAE-dextran (Sigma) then placed at 37° C./5% CO2. After incubation for 30 minutes, 2 ml of medium DMEM/10% NuSerum/80 μM chloroquin is added. After 3 hours, the medium is replaced with 2 ml of DMEM/10% FCS and the cells are incubated for 48 to 72 hours before being measured by electrophysiological methods.
Electrophysiological measurements: all the measurements are taken at room temperature, i.e. at 21-22° C. The cells that were transfected by the plasmid are detected from the fluorescence emitted by the EGFP after excitation at 480 nm.
The whole-cell patch clamp technique was used for measuring the activity of the TREK-1 channels. The equipment used is the RK 400 patch-clamp amplifier (Axon Instruments, U.S.A.). The patch pipettes with resistance of 1.3 to 8 MΩ are prepared from capillaries of borosilicate glass and are filled with a solution of 155 mM KCl, 3 mM MgCl2, 5 mM EGTA, 10 mM HEPES/KOH pH 7.2.
The cell culture medium is replaced with a solution of 150 mM NaCl, 5 mM KCl, 3 mM MgCl2, 1 mM CaCl2, 10 HEPES/NaOH pH 7.4 containing 10 mM tetraethyl ammonium chloride, 3 mM of 4-aminopyridin. The cells are perfused continuously with this solution. The rest potential of the membrane of the measured cell is fixed at −80 mV.
The variations in voltage are obtained either with a continuous ramp (from −100 to +50 mV) or by potential jumps of 10 mV (from −100 to +40 mV, 1.5 second per jump).
The data obtained were analyzed with the Pclamp software. The currents described in the appended FIG. 2B were obtained at 0 mV, the results expressed are the mean values±standard deviation. The IC50 value was obtained by plotting the experimental data with a sigmoidal function.
The activity of the channel is then measured by the patch-clamp technique in whole-cell configuration as described above.
Background: In patch-clamp work, channel activity is measured electrically.

In another assay the test system is mouse (C57Black/J). The assay is described as follows: Conditioned motility suppression test (CMST). Type of assay: in vivo. The note with it: fluoxetine 3 mg/kg; 30 min after injection. From the text:
The inventors conducted three types of behavioral experiments that are regarded as classical for determining the antidepressant activity of a substance (Nestler E. J., Gould E., Manji H., Buncan M., Duman R. S., Greshenfeld H. K., Hen, R. et al. “Preclinical models: status of basic research in depression” Biol Psychiatry. 15, 503-528 (2002) (20) and Cryan, J. & Holmes, A. “The ascent of mouse: advances in modeling human depression and anxiety” Nat Rev Drug Discov. 4, 775-790 (2005) (21)). The effects of the propeptide of the present invention were compared with those of the saline solution in which it is dissolved and with those of fluoxetine, one of the most-used antidepressants in clinical practice. The mouse strain used is C57Black/J strain. TREK-1^−/− mice were also measured in these various tests.
In the next two tests, the propeptide of the present invention was administered by the IV route at a rate of 100 μl at 1 μM per animal.
C. Conditioned Motility Suppression Test (CMST) (see Daugé, V., Sebret, A., Beslot, F., Matsui, T., & Rogues B. “Behavioral profile of CCK2 receptor-deficient mice” Neuropsychopharmacol; 25: 690-698 (2001) (23).
The experiment consists of conditioning the mouse on day 1, and measuring the effects of the substances on day 2.
On day 1, each mouse is placed in a box where the floor is a metal grille connected to an electric stimulator. […]

The test system of assay [1] is hippocampus progenitor cells. The assay is described as follows: Neurogenesis (BrdU-positive cells) after 4 days of treatment. Type of assay: in vivo, mouse. As to conditions: fluoxetine 3 mg/kg. From the text: In contrast to many antidepressants now commonly used, the efficacy of action of the peptide of the invention is very rapid. […] 93: 3908-3913 (1996) (28) and with a considerable decrease in neurogenesis in the dentate gyrus (Gould, E., Tanapat, P., McEwen, B. S., Flugge, G., Fuchs, E. “Proliferation of granule cell precursors in the dentate gyrus of adult monkeys is diminished by stress” Proc Natl Acad Sci USA, 95: 3168-3171 (1998)) (29).
The experimental protocol is that described in the material and methods (Supplement) of the work of Santarelli et al., “Requirement of hippocampal neurogenesis for the behavioral effects of antidepressants” Science, 301: 805-809 (2003) (24) apart from the duration of treatment, which is four days.
The increase was evaluated using the one-factor ANOVA test followed by the post-hoc test.

The structures appear in SMILES notation.

Take `CCCCC/C=C\C/C=C\C/C=C\C/C=C\CCCC(=O)O` [arachidonic acid, reference compound]: the “current density at 0 mV” value on TREK-1 channel worked out at 130 pA/pF.

As to `CNCCC(Oc1ccc(C(F)(F)F)cc1)c1ccccc1` (stereo not drawn) [fluoxetine, reference compound], the “motility relative to untreated shocked mice” value in the assay on mouse (C57Black/J) worked out at 5 times greater. In addition, in assay [1], the “neurogenesis relative to physiological saline” value is “identical to that induced by the injection of physiological saline solution”.

Values taken from patent publication US8252748B2, “Peptide derived from neurotensin receptor 3 and use thereof in the treatment of psychiatric diseases” (Centre National de la Recherche Scientifique—CNRS, priority 2007, dated 2012).
